Source: patent publication US20250262201A1, “COMPOUNDS AND METHODS USEFUL FOR STABILIZING PHENYLALANINE HYDROXYLASE MUTATIONS” (Agios Pharmaceuticals, Inc., priority 2022, published 2025)

Biological target: T1, human PAH with the R408W mutation (Homo sapiens, UniProt P00439, R408W)
T1 construct: expressed in transfected cells
T1 sequence (P00439 1-452 R408W): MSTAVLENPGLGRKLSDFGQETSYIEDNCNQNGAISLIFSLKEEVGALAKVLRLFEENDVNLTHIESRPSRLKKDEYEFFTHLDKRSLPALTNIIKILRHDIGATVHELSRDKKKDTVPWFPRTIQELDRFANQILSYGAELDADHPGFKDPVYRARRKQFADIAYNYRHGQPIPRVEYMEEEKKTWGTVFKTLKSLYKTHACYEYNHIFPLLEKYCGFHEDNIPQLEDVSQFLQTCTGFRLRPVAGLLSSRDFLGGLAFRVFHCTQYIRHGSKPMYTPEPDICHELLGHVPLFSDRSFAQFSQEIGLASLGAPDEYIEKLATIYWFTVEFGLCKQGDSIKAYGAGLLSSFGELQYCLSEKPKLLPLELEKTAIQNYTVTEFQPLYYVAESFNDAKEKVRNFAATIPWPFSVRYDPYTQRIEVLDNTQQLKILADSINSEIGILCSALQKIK
Test: Cell Based Phenylalanine Flux Assay
Conditions: A375 cells expressing human R408W PAH; 24 hrs compound incubation; 13C-Tyrosine by LC-MS; average where tested multiple times; read-out: AC50

Row | SMILES | AC50 [µM]
1 | COc1ccc2c(C(=O)N3CCc4[nH]cnc4[C@H]3c3cc4ccccc4cn3)cnn2c1 [Example 460, (R)-(4-(isoquinolin-3-yl)-6,7-dihydro-1H-imidazo[4,5-c]pyridin-5(4H)-yl)(6-methoxypyrazolo[1,5-a]pyridin-3-yl)methanone] | < 0.5
2 | O=C(c1cnn2cc(-c3ccccn3)ccc12)N1CCc2[nH]cnc2[C@H]1c1cc2ccccc2cn1 [Example 461, (R)-(4-(isoquinolin-3-yl)-6,7-dihydro-1H-imidazo[4,5-c]pyridin-5(4H)-yl)(6-(pyridin-2-yl)pyrazolo[1,5-a]pyridin-3-yl)methanone] | < 0.5
3 | O=C(c1cnn2ccc(Cl)cc12)N1CCc2[nH]cnc2[C@H]1c1cc2ccccc2cn1 [Example 462, (R)-(5-chloropyrazolo[1,5-a]pyridin-3-yl)(4-(isoquinolin-3-yl)-6,7-dihydro-1H-imidazo[4,5-c]pyridin-5(4H)-yl)methanone] | < 0.5
4 | O=C(c1cnn2cc(N3CCOCC3)c(Cl)cc12)N1CCc2[nH]cnc2[C@H]1c1cc2ccccc2cn1 [Example 463, (R)-(5-chloro-6-morpholinopyrazolo[1,5-a]pyridin-3-yl)(4-(isoquinolin-3-yl)-6,7-dihydro-1H-imidazo[4,5-c]pyridin-5(4H)-yl)methanone] | < 0.5
5 | CN1CCN(c2cn3ncc(C(=O)N4CCc5[nH]cnc5[C@H]4c4cc5ccccc5cn4)c3cc2Cl)CC1 [Example 464, (R)-(5-chloro-6-(4-methylpiperazin-1-yl)pyrazolo[1,5-a]pyridin-3-yl)(4-(isoquinolin-3-yl)-6,7-dihydro-1H-imidazo[4,5-c]pyridin-5(4H)-yl)methanone] | < 0.5
6 | C[C@@H](O)c1nnc(C(=O)N2CCc3[nH]cnc3[C@H]2c2cc3ccccc3cn2)o1 [Example 465, (5-((R)-1-hydroxyethyl)-1,3,4-oxadiazol-2-yl)((R)-4-(isoquinolin-3-yl)-6,7-dihydro-1H-imidazo[4,5-c]pyridin-5(4H)-yl)methanone] | 0.5 to 1
7 | Cc1ccc2c(C(=O)N3CCc4[nH]cnc4[C@H]3c3cc4ccccc4cn3)cnn2c1 [Example 466, (R)-(4-(isoquinolin-3-yl)-6,7-dihydro-1H-imidazo[4,5-c]pyridin-5(4H)-yl)(6-methylpyrazolo[1,5-a]pyridin-3-yl)methanone] | < 0.5
8 | O=C(c1cnn2cc(Cl)ccc12)N1CCc2[nH]cnc2[C@H]1c1cc2ccccc2cn1 [Example 467, (R)-(6-chloropyrazolo[1,5-a]pyridin-3-yl)(4-(isoquinolin-3-yl)-6,7-dihydro-1H-imidazo[4,5-c]pyridin-5(4H)-yl)methanone] | < 0.5
9 | CN(C)CCc1ccc2c(C(=O)N3CCc4[nH]cnc4[C@H]3c3cc4ccccc4cn3)cnn2c1 [Example 468, (R)-(6-(2-(dimethylamino)ethyl)pyrazolo[1,5-a]pyridin-3-yl)(4-(isoquinolin-3-yl)-6,7-dihydro-1H-imidazo[4,5-c]pyridin-5(4H)-yl)methanone] | < 0.5
10 | O=C(c1nnc(-c2cnccn2)o1)N1CCc2[nH]cnc2[C@H]1c1cc2ccccc2cn1 [Example 469, (R)-(4-(isoquinolin-3-yl)-6,7-dihydro-1H-imidazo[4,5-c]pyridin-5(4H)-yl)(5-(pyrazin-2-yl)-1,3,4-oxadiazol-2-yl)methanone] | < 0.5
11 | CN(C)c1ccc2c(C(=O)N3CCc4[nH]cnc4[C@H]3c3cc4ccccc4cn3)cnn2c1 [Example 470, (R)-(6-(dimethylamino)pyrazolo[1,5-a]pyridin-3-yl)(4-(isoquinolin-3-yl)-6,7-dihydro-1H-imidazo[4,5-c]pyridin-5(4H)-yl)methanone] | < 0.5

More lines, now with the values ahead:

Row | AC50 [µM] | SMILES
12 | < 0.5 | O=C(c1nnc(-c2ccncn2)o1)N1CCc2[nH]cnc2[C@H]1c1cc2ccccc2cn1 [Example 471, (R)-(4-(isoquinolin-3-yl)-6,7-dihydro-1H-imidazo[4,5-c]pyridin-5(4H)-yl)(5-(pyrimidin-4-yl)-1,3,4-oxadiazol-2-yl)methanone]
13 | < 0.5 | Cc1cc(-c2nnc(C(=O)N3CCc4[nH]cnc4[C@H]3c3cc4ccccc4cn3)o2)nn1C [Example 472, (R)-(5-(1,5-dimethyl-1H-pyrazol-3-yl)-1,3,4-oxadiazol-2-yl)(4-(isoquinolin-3-yl)-6,7-dihydro-1H-imidazo[4,5-c]pyridin-5(4H)-yl)methanone]
14 | < 0.5 | O=C(c1nnc(-c2ncccn2)o1)N1CCc2[nH]cnc2[C@H]1c1cc2ccccc2cn1 [Example 473, (R)-(4-(isoquinolin-3-yl)-6,7-dihydro-1H-imidazo[4,5-c]pyridin-5(4H)-yl)(5-(pyrimidin-2-yl)-1,3,4-oxadiazol-2-yl)methanone]
15 | 1 to 5 | O=C(c1cnn2cc(N3CCC(F)CC3)ccc12)N1CCc2[nH]cnc2[C@H]1c1cc2ccccc2cn1 [Example 474, (R)-(6-(4-fluoropiperidin-1-yl)pyrazolo[1,5-a]pyridin-3-yl)(4-(isoquinolin-3-yl)-6,7-dihydro-1H-imidazo[4,5-c]pyridin-5(4H)-yl)methanone]
16 | < 0.5 | O=C(c1cnn2cc(-c3cccnc3)ccc12)N1CCc2[nH]cnc2[C@H]1c1cc2ccccc2cn1 [Example 475, (R)-(4-(isoquinolin-3-yl)-6,7-dihydro-1H-imidazo[4,5-c]pyridin-5(4H)-yl)(6-(pyridin-3-yl)pyrazolo[1,5-a]pyridin-3-yl)methanone]
17 | < 0.5 | O=C(c1cnn2cc(-c3ccncn3)ccc12)N1CCc2[nH]cnc2[C@H]1c1cc2ccccc2cn1 [Example 476, (R)-(4-(isoquinolin-3-yl)-6,7-dihydro-1H-imidazo[4,5-c]pyridin-5(4H)-yl)(6-(pyrimidin-4-yl)pyrazolo[1,5-a]pyridin-3-yl)methanone]
18 | < 0.5 | O=C(c1cnn2cc(-c3cnccn3)ccc12)N1CCc2[nH]cnc2[C@H]1c1cc2ccccc2cn1 [Example 477, (R)-(4-(isoquinolin-3-yl)-6,7-dihydro-1H-imidazo[4,5-c]pyridin-5(4H)-yl)(6-(pyrazin-2-yl)pyrazolo[1,5-a]pyridin-3-yl)methanone]
19 | 0.5 to 1 | O=C(c1cnn2cc(N3CCC(O)CC3)ccc12)N1CCc2[nH]cnc2[C@H]1c1cc2ccccc2cn1 [Example 478, (R)-(6-(4-hydroxypiperidin-1-yl)pyrazolo[1,5-a]pyridin-3-yl)(4-(isoquinolin-3-yl)-6,7-dihydro-1H-imidazo[4,5-c]pyridin-5(4H)-yl)methanone]
20 | < 0.5 | Cc1cccc(-c2ccc3c(C(=O)N4CCc5[nH]cnc5[C@H]4c4cc5ccccc5cn4)cnn3c2)n1 [Example 479, (R)-(4-(isoquinolin-3-yl)-6,7-dihydro-1H-imidazo[4,5-c]pyridin-5(4H)-yl)(6-(6-methylpyridin-2-yl)pyrazolo[1,5-a]pyridin-3-yl)methanone]
21 | < 0.5 | Cc1ncccc1-c1ccc2c(C(=O)N3CCc4[nH]cnc4[C@H]3c3cc4ccccc4cn3)cnn2c1 [Example 480, (R)-(4-(isoquinolin-3-yl)-6,7-dihydro-1H-imidazo[4,5-c]pyridin-5(4H)-yl)(6-(2-methylpyridin-3-yl)pyrazolo[1,5-a]pyridin-3-yl)methanone]
22 | < 0.5 | Cn1ccc(-c2ccc3c(C(=O)N4CCc5[nH]cnc5[C@H]4c4cc5ccccc5cn4)cnn3c2)n1 [Example 481, (R)-(4-(isoquinolin-3-yl)-6,7-dihydro-1H-imidazo[4,5-c]pyridin-5(4H)-yl)(6-(1-methyl-1H-pyrazol-3-yl)pyrazolo[1,5-a]pyridin-3-yl)methanone]
